Measurements from the supplement of paper PMC10307832.

What was measured:
Assay in all cases: relative viability (nuclei count vs DMSO), 5 days (fraction); higher = more cells survive
Bortezomib + Dasatinib = compound: CC(C)C[C@H](NC(=O)[C@H](Cc1ccccc1)NC(=O)c1cnccn1)B(O)O [Bortezomib] + Cc1nc(Nc2ncc(C(=O)Nc3c(C)cccc3Cl)s2)cc(N2CCN(CCO)CC2)n1 [Dasatinib] (partner 0.075 µM)
Outline: (§1)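 Lung cancer cell lines were pin-tool dosed in 1536-well plates on the day after seeding, with either a lone drug or a fixed anchor-drug dose plus five library-drug doses (not always all listed) in √10 steps. Nuclei were counted on 4× images after 5 days. Relative viability is the ratio of treated-well to vehicle-well nuclei counts, with each value a median of duplicate plates.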

Obatoclax + Luminespib = compound: COC1=CC(c2cc3ccccc3[nH]2)=N/C1=C\c1[nH]c(C)cc1C [Obatoclax] + CCNC(=O)c1noc(-c2cc(C(C)C)c(O)cc2O)c1-c1ccc(CN2CCOCC2)cc1 [Luminespib] (partner 0.01 µM)
Outline: as §1

Obatoclax + Linsitinib = compound: COC1=CC(c2cc3ccccc3[nH]2)=N/C1=C\c1[nH]c(C)cc1C [Obatoclax] + C[C@]1(O)C[C@@H](c2nc(-c3ccc4ccc(-c5ccccc5)nc4c3)c3c(N)nccn32)C1 [Linsitinib] (partner 1 µM)
Outline: as §1

Obatoclax + AZD7762 = compound: COC1=CC(c2cc3ccccc3[nH]2)=N/C1=C\c1[nH]c(C)cc1C [Obatoclax] + NC(=O)Nc1cc(-c2cccc(F)c2)sc1C(=O)N[C@H]1CCCNC1 [AZD7762] (partner 0.2 µM)
Outline: as §1

Cell Line | relative viability (Bortezomib + Dasatinib; first compound 0.0002 µM) | relative viability (Bortezomib + Dasatinib; first compound 0.000632 µM) | relative viability (Bortezomib + Dasatinib; first compound 0.002 µM) | relative viability (Bortezomib + Dasatinib; first compound 0.006325 µM) | relative viability (Bortezomib + Dasatinib; first compound 0.02 µM) | relative viability (Obatoclax + Luminespib; first compound 0.01 µM) | relative viability (Obatoclax + Luminespib; first compound 0.03162 µM) | relative viability (Obatoclax + Luminespib; first compound 0.1 µM) | relative viability (Obatoclax + Luminespib; first compound 0.3162 µM) | relative viability (Obatoclax + Luminespib; first compound 1 µM) | relative viability (Obatoclax + Linsitinib; first compound 0.01 µM) | relative viability (Obatoclax + Linsitinib; first compound 0.03162 µM) | relative viability (Obatoclax + Linsitinib; first compound 0.1 µM) | relative viability (Obatoclax + Linsitinib; first compound 0.3162 µM) | relative viability (Obatoclax + Linsitinib; first compound 1 µM) | relative viability (Obatoclax + AZD7762; first compound 0.01 µM) | relative viability (Obatoclax + AZD7762; first compound 0.03162 µM) | relative viability (Obatoclax + AZD7762; first compound 0.1 µM) | relative viability (Obatoclax + AZD7762; first compound 0.3162 µM) | relative viability (Obatoclax + AZD7762; first compound 1 µM)
NCI-H3122 | 0.878 | 0.873 | 0.901 | 0.233 | 0.0847 | 0.0984 | 0.0854 | 0.0999 | 0.0772 | 0.0894 | 1.01 | 1.02 | 1.04 | 0.97 | 1.01 | 1.03 | 0.962 | 0.971 | 0.949 | 1
BEN | 0.262 | 0.408 | 0.343 | 0.246 | 0.249 | 0.507 | 0.243 |  | 0.26 | 0.291 | 0.948 | 0.828 | 0.913 | 0.948 | 0.796 | 0.762 | 0.607 | 0.544 | 0.734 | 0.704
NCI-H1915 | 0.234 | 0.329 | 0.315 | 0.128 | 0.0542 | 0.725 | 0.664 | 0.749 | 0.713 | 0.796 | 1.07 | 1.06 | 1.09 | 1.07 | 1.06 | 0.697 | 0.573 | 0.648 | 0.752 | 0.562
NCI-H460 | 0.437 | 0.507 | 0.514 | 0.342 | 0.0305 | 0.0359 | 0.0371 | 0.0282 | 0.0268 | 0.019 | 0.719 | 0.864 | 0.582 | 0.0258 | 0.0195 | 0.651 | 0.537 |  | 0.617 | 0.11
NCI-H522 | 0.875 | 0.79 | 0.965 | 0.4 | 0.393 | 1.17 | 1.1 | 1.07 |  | 1.01 |  |  |  |  |  | 0.823 | 0.664 | 0.915 | 0.92 | 0.883
LCLC-103H | 0.461 | 0.486 | 0.435 | 0.161 | 0.123 | 0.948 | 0.875 | 1.02 | 0.911 | 0.969 | 0.953 | 1.02 | 1.13 | 1 | 1.23 | 0.766 | 0.727 | 0.682 | 0.871 | 0.917
HCC-827 | 0.302 | 0.285 | 0.259 | 0.34 | 0.199 | 0.676 | 0.575 | 0.6 | 0.706 | 0.76 | 0.904 | 1.01 | 0.895 | 0.866 | 0.914 | 0.244 | 0.234 | 0.215 | 0.202 | 0.261
NCI-H322M | 0.26 |  | 0.253 | 0.229 | 0.286 | 0.949 | 0.809 |  | 0.758 | 0.39 | 0.943 | 0.958 | 0.941 | 0.893 | 0.89 | 0.538 | 0.556 | 0.549 | 0.399 | 0.4
NCI-H2342 | 0.286 | 0.306 | 0.322 | 0.334 | 0.349 | 0.592 | 0.87 | 0.777 | 0.644 | 0.716 |  |  |  |  |  | 0.614 | 0.392 | 0.51 | 0.363 | 0.389
